Assay results as given in ChEMBL document CHEMBL1221330, “N-tetrahydrothiochromenoisoxazole-1-carboxamides as selective antagonists of cloned human 5-HT2B” (Bioorg Med Chem Lett, 2010).
pEC50, pIC50, pKi: −log10 of the molar value. Values belong to the compound of their own block, whether it stands above or below them.

Tests used:
[1] = target: T1, 5-hydroxytryptamine receptor 2C (Homo sapiens) (UniProt P28335); experiment: Displacement of [3H]Mesulergine from human 5HT2C receptor at 10 uM
T1 sequence (whole entry): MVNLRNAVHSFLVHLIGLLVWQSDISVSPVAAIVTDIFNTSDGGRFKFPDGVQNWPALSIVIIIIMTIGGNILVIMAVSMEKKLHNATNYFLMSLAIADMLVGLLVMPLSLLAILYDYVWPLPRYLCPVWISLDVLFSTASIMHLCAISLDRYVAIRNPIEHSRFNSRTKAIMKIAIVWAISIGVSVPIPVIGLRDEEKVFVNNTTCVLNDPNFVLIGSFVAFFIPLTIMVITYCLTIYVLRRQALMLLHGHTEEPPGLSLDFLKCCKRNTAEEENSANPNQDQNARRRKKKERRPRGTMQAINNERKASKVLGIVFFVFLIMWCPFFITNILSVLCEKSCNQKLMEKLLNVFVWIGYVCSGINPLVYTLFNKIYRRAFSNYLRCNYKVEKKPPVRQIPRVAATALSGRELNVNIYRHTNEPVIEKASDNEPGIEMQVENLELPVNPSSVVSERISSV

[2] = target: T2, 5-hydroxytryptamine receptor 2B (Homo sapiens, UniProt P41595); experiment: Displacement of [3H]LSD from human 5HT2B receptor at 10 uM
[3] = target: T3, 5-hydroxytryptamine receptor 2C (Homo sapiens, UniProt P28335); experiment: Displacement of [3H]Mesulergine from human 5HT2C receptor
T3 sequence (P28335 whole entry): T1 sequence (whole entry)

[4] = target: T4, 5-hydroxytryptamine receptor 2A (Homo sapiens, UniProt P28223); experiment: Displacement of [3H]Ketanserin from human 5HT2A receptor
[5] = target: T2, 5-hydroxytryptamine receptor 2B; experiment: Displacement of [3H]LSD from human 5HT2B receptor
[6] = target: T4, 5-hydroxytryptamine receptor 2A; experiment: Displacement of [3H]Ketanserin from human 5HT2A receptor at 10 uM
[7] = target: 5-hydroxytryptamine receptor 5A (Homo sapiens) (UniProt P47898); experiment: Displacement of [3H]LSD from human 5HT5A receptor at 10 uM
[8] = target: 5-hydroxytryptamine receptor 1B (Homo sapiens) (UniProt P28222); experiment: Displacement of [3H][…] from human 5HT1B receptor at 10 uM
[9] = target: T5, Sodium-dependent noradrenaline transporter (Homo sapiens, UniProt P23975); experiment: Displacement of [3H]Nisoxetine from human NET
[10] = target: Histamine H4 receptor (Homo sapiens) (UniProt Q9H3N8); experiment: Displacement of [3H]Histamine from human histamine H4 receptor at 10 uM
[11] = target: T6, Sodium-dependent dopamine transporter (Homo sapiens, UniProt Q01959); experiment: Displacement of [3H][…] from human DAT at 10 uM
[12] = target: T2, 5-hydroxytryptamine receptor 2B; experiment: Agonist activity at human 5HT2B receptor assessed as 5HT-induced calcium mobilization at 10 uM by FLIPR assay relative to 5HT; format: functional
[13] = species: Homo sapiens; experiment: Displacement of [3H]DTG from human sigma 2 receptor at 10 uM
[14] = target: Mu-type opioid receptor (Homo sapiens) (UniProt P35372); experiment: Displacement of [3H]DAMGO from human mu opioid receptor at 10 uM
[15] = target: Sigma non-opioid intracellular receptor 1 (Homo sapiens) (UniProt Q99720); experiment: Displacement of [3H]Pentazocine from human sigma 1 receptor at 10 uM
[16] = target: Beta-1 adrenergic receptor (Homo sapiens) (UniProt P08588); experiment: Displacement of [125I]Iodopindolol from human adrenergic beta-1 receptor at 10 uM
[17] = target: D(3) dopamine receptor (Homo sapiens) (UniProt P35462); experiment: Displacement of [3H]N-methylspiperone from human dopamine D3 receptor at 10 uM
[18] = target: Delta-type opioid receptor (Homo sapiens) (UniProt P41143); experiment: Displacement of [3H]DADLE from human delta opioid receptor at 10 uM
[19] = target: D(2) dopamine receptor (Homo sapiens) (UniProt P14416); experiment: Displacement of [3H]N-methylspiperone from human dopamine D2 receptor at 10 uM
[20] = target: Muscarinic acetylcholine receptor M5 (Homo sapiens) (UniProt P08912); experiment: Displacement of [3H]QNB from human muscarinic M5 receptor at 10 uM
[21] = target: 5-hydroxytryptamine receptor 7 (Homo sapiens) (UniProt P34969); experiment: Displacement of [3H]LSD from human 5HT7 receptor at 10 uM
[22] = target: T3, 5-hydroxytryptamine receptor 2C; experiment: Agonist activity at human 5HT2C receptor assessed as 10633-induced calcium mobilization by FLIPR assay; format: functional
[23] = target: T2, 5-hydroxytryptamine receptor 2B; experiment: Agonist activity at human 5HT2B receptor assessed as 5HT-induced calcium mobilization by FLIPR assay; format: functional
[24] = target: Muscarinic acetylcholine receptor M1 (Homo sapiens) (UniProt P11229); experiment: Displacement of [3H]QNB from human muscarinic M1 receptor at 10 uM
[25] = target: T3, 5-hydroxytryptamine receptor 2C; experiment: Agonist activity at human 5HT2C receptor assessed as 5HT-induced calcium mobilization by FLIPR assay; format: functional
[26] = target: Histamine H3 receptor (Homo sapiens) (UniProt Q9Y5N1); experiment: Displacement of [3H]alpha-methylhistamine from human histamine H3 receptor at 10 uM
[27] = target: 5-hydroxytryptamine receptor 1D (Homo sapiens) (UniProt P28221); experiment: Displacement of [3H][…] from human 5HT1D receptor at 10 uM
[28] = target: T2, 5-hydroxytryptamine receptor 2B; experiment: Agonist activity at human 5HT2B receptor assessed as 10633-induced calcium mobilization by FLIPR assay; format: functional
[29] = target: Alpha-1A adrenergic receptor (Homo sapiens) (UniProt P35348); experiment: Displacement of [3H]Prazosin from human adrenergic alpha1A receptor at 10 uM
[30] = target: 5-hydroxytryptamine receptor 3A (Homo sapiens) (UniProt P46098); experiment: Displacement of [3H]LY278584 from human 5HT3 receptor at 10 uM
[31] = target: Beta-2 adrenergic receptor (Homo sapiens) (UniProt P07550); experiment: Displacement of [125I]Iodopindolol from human adrenergic beta2 receptor at 10 uM
[32] = target: D(4) dopamine receptor (Homo sapiens) (UniProt P21917); experiment: Displacement of [3H]N-methylspiperone from human dopamine D4 receptor at 10 uM
[33] = target: Beta-3 adrenergic receptor (Homo sapiens) (UniProt P13945); experiment: Displacement of [125I]Iodopindolol from human adrenergic beta3 receptor at 10 uM
[34] = target: Histamine H2 receptor (Homo sapiens) (UniProt P25021); experiment: Displacement of [3H]Tiotidine from human histamine H2 receptor at 10 uM
[35] = target: Muscarinic acetylcholine receptor M4 (Homo sapiens) (UniProt P08173); experiment: Displacement of [3H]QNB from human muscarinic M4 receptor at 10 uM
[36] = target: 5-hydroxytryptamine receptor 1E (Homo sapiens) (UniProt P28566); experiment: Displacement of [3H]5-HT from human 5HT1E receptor at 10 uM
[37] = target: Histamine H1 receptor (Homo sapiens) (UniProt P35367); experiment: Displacement of [3H]Pyrilamine from human histamine H1 receptor at 10 uM
[38] = target: T5, Sodium-dependent noradrenaline transporter; experiment: Displacement of [3H]Nisoxetine from human NET at 10 uM
[39] = target: Kappa-type opioid receptor (Homo sapiens) (UniProt P41145); experiment: Displacement of [3H]U69593 from human kappa opioid receptor at 10 uM
[40] = target: T6, Sodium-dependent dopamine transporter; experiment: Displacement of [3H][…] from human DAT
[41] = target: Muscarinic acetylcholine receptor M3 (Homo sapiens) (UniProt P20309); experiment: Displacement of [3H]QNB from human muscarinic M3 receptor at 10 uM
[42] = target: Muscarinic acetylcholine receptor M2 (Homo sapiens) (UniProt P08172); experiment: Displacement of [3H]QNB from human muscarinic M2 receptor at 10 uM
[43] = target: T7, Sodium-dependent serotonin transporter (Homo sapiens, UniProt P31645); experiment: Displacement of [3H]Citalopram from human SERT
[44] = target: 5-hydroxytryptamine receptor 1A (Homo sapiens) (UniProt P08908); experiment: Displacement of [3H]8-OH-DPAT from human 5HT1A receptor at 10 uM
[45] = target: D(1A) dopamine receptor (Homo sapiens) (UniProt P21728); experiment: Displacement of [3H][…] from human dopamine D1 receptor at 10 uM
[46] = target: T2, 5-hydroxytryptamine receptor 2B; experiment: Antagonist activity at human 5HT2B receptor assessed as inhibition of 10633-induced calcium mobilization by FLIPR assay; format: functional
[47] = target: T7, Sodium-dependent serotonin transporter; experiment: Displacement of [3H]Citalopram from human SERT at 10 uM

T2 sequence (P41595 whole entry): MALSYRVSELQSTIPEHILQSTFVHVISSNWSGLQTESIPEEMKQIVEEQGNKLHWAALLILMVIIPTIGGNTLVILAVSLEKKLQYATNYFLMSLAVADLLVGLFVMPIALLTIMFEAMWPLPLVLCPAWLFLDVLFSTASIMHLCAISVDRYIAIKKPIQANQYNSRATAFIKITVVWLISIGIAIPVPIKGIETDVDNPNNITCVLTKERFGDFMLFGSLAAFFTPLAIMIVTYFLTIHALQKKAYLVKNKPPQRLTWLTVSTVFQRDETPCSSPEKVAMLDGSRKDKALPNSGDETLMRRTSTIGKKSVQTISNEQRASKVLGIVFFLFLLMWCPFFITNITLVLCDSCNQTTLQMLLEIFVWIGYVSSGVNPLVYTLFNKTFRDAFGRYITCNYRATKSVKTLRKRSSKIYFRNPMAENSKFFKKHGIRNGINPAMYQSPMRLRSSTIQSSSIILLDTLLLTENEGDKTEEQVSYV
T4 sequence (P28223 whole entry): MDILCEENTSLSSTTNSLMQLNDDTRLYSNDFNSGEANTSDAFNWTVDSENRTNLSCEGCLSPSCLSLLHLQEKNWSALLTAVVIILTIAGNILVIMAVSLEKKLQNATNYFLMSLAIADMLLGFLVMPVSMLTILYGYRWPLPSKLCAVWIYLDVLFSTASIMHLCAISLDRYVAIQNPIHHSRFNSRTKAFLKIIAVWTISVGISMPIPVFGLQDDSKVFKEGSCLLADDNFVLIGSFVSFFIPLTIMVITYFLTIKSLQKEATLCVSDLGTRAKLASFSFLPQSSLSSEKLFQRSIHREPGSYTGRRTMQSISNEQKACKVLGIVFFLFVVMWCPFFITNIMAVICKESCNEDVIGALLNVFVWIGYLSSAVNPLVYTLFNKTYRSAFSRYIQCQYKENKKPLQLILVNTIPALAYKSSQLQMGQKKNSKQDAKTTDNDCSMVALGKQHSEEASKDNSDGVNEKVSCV
T6 sequence (Q01959 whole entry): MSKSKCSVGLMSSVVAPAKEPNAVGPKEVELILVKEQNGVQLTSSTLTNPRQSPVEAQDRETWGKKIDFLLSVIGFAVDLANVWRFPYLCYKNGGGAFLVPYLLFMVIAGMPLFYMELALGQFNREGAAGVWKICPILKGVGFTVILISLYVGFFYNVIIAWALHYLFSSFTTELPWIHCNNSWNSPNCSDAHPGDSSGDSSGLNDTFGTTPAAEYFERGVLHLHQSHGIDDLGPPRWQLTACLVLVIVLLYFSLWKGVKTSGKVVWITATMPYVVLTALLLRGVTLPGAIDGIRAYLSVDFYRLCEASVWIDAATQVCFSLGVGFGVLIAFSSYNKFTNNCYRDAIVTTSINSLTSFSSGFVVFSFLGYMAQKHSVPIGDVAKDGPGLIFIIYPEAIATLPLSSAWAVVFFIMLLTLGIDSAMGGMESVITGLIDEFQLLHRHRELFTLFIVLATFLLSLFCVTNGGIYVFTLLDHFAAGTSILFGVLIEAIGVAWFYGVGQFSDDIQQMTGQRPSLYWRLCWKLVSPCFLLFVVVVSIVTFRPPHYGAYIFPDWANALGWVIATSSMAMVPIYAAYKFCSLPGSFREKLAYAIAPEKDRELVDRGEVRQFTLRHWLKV
T5 sequence (P23975 whole entry): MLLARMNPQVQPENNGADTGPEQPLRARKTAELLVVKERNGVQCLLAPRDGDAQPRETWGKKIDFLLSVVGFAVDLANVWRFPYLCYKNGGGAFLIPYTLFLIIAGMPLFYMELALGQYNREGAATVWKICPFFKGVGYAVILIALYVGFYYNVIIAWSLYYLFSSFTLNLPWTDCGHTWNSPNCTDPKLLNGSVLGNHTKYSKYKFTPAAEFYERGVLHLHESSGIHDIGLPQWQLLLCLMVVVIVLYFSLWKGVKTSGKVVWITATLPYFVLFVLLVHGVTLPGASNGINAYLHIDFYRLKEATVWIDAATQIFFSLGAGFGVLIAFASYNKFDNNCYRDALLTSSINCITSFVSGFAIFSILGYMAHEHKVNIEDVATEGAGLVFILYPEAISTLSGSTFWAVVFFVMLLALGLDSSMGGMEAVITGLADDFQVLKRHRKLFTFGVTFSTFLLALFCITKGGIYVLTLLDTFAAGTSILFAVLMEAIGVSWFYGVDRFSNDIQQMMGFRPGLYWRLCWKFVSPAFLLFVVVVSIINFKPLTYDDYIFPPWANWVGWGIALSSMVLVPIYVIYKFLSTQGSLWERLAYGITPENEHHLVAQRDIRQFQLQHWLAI
Chain of D(2) dopamine receptor (Homo sapiens) (P14416 whole entry): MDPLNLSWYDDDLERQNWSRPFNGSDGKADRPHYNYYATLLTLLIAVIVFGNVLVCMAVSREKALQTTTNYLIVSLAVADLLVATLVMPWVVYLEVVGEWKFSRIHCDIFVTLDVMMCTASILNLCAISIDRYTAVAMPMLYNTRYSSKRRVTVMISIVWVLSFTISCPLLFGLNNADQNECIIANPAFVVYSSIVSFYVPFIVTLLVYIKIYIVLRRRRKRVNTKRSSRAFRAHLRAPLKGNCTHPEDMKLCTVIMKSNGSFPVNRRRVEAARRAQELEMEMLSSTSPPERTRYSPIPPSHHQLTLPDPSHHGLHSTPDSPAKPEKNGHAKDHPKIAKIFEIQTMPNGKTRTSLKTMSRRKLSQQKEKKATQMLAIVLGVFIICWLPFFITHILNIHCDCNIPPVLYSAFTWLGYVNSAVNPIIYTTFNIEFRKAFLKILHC
Chain of Beta-1 adrenergic receptor (Homo sapiens) (P08588 whole entry, looked up): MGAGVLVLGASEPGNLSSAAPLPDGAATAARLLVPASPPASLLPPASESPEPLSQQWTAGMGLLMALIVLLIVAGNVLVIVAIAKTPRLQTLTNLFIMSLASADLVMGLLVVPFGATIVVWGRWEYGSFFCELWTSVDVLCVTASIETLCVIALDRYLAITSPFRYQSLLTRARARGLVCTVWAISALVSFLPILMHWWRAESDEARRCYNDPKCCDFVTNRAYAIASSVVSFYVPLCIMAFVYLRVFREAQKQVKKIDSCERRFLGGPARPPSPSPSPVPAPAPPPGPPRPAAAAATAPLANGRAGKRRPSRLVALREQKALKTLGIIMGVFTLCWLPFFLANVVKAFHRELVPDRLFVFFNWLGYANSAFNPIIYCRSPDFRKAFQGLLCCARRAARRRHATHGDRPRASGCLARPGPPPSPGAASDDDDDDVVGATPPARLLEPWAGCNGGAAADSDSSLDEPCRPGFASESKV
Chain of Muscarinic acetylcholine receptor M2 (Homo sapiens) (P08172 whole entry): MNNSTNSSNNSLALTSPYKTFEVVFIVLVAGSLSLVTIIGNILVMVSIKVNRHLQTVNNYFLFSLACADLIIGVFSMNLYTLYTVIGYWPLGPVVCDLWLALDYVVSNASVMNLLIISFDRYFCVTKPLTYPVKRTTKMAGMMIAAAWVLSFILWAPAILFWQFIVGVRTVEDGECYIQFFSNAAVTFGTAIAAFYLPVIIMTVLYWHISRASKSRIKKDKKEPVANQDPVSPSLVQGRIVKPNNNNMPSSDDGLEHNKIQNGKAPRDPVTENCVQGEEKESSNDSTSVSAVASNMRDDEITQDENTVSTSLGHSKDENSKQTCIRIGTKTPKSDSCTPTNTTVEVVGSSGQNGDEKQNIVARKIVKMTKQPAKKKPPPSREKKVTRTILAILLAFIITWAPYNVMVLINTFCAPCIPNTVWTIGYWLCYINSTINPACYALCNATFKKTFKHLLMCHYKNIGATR
Chain of Beta-2 adrenergic receptor (Homo sapiens) (P07550 whole entry, looked up): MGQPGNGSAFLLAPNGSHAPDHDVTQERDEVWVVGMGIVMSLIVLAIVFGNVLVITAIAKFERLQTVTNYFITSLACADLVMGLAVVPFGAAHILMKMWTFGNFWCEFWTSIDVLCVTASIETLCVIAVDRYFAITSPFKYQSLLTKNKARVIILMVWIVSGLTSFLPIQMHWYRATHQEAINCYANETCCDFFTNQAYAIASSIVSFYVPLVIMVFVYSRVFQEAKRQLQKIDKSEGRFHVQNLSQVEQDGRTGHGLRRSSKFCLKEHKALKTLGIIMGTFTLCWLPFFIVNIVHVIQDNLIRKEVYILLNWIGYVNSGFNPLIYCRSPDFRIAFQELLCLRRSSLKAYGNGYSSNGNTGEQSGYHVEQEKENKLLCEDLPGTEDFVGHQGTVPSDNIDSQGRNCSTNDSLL
Chain of Muscarinic acetylcholine receptor M1 (Homo sapiens) (P11229 whole entry): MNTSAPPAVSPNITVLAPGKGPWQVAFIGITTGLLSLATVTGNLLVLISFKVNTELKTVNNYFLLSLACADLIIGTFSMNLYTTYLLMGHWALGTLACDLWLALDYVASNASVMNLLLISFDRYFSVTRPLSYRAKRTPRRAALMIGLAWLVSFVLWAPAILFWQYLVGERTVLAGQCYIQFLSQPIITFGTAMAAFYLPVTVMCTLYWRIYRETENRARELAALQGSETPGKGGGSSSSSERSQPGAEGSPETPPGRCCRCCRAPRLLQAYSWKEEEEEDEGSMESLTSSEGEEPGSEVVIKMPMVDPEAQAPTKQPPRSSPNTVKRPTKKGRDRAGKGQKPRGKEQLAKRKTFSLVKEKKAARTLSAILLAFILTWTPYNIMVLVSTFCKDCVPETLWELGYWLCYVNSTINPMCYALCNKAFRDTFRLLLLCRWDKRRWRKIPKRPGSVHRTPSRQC
Chain of D(3) dopamine receptor (Homo sapiens) (P35462 whole entry): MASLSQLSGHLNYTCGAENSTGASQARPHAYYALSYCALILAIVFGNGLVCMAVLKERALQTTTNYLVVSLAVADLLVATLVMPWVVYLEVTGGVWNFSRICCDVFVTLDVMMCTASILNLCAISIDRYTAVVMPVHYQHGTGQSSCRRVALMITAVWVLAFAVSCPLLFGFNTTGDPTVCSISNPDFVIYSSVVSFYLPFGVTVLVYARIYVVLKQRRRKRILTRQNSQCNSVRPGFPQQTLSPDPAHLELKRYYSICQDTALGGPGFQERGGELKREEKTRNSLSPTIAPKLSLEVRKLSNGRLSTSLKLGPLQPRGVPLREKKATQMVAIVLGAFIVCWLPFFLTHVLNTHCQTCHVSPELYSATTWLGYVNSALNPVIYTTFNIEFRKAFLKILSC

Structure (SMILES): CC(C)NC(=O)N1OCC2COc3ccccc3C21 (stereo unspecified)
inhibition [1]: 28.9% | inhibition [2]: 14.8% | inhibition [6]: -0.2% | pKi [3]: < 5.00 | pKi [4]: < 5.00 | pKi [5]: < 5.00

Structure (SMILES): CC(C)(C)NC(=O)N1OCC2COc3ccccc3C21 (stereo unspecified)
inhibition [1]: 25.9% | inhibition [2]: 43% | inhibition [6]: 12% | pKi [3]: < 5.00 | pKi [4]: < 5.00 | pKi [5]: < 5.00

Structure (SMILES): CCCNC(=O)N1OCC2COc3ccccc3C21 (stereo unspecified)
inhibition [1]: 14.7% | inhibition [2]: 53.5% | inhibition [6]: 2.4% | pKi [3]: < 5.00 | pKi [4]: < 5.00 | pKi [5]: 5.18

Structure (SMILES): O=C(NC1CCCCC1)N1OCC2COc3ccccc3C21 (stereo unspecified)
inhibition [1]: 28.1% | inhibition [2]: 75.5% | inhibition [6]: 5.5% | pKi [3]: < 5.00 | pKi [4]: < 5.00 | pKi [5]: 5.75

Structure (SMILES): Cc1ccccc1NC(=O)N1OCC2COc3ccccc3C21 (stereo unspecified)
inhibition [1]: 40.2% | inhibition [2]: 52.2% | inhibition [6]: 12.8% | pKi [3]: < 5.00 | pKi [4]: < 5.00 | pKi [5]: 5.40

Structure (SMILES): CCCCNC(=O)N1OCC2COc3ccccc3C21 (stereo unspecified)
inhibition [1]: 23.4% | inhibition [2]: 35.4% | inhibition [6]: 0.8% | pKi [3]: < 5.00 | pKi [4]: < 5.00 | pKi [5]: < 5.00

Structure (SMILES): O=C(Nc1ccccc1)N1OCC2COc3ccccc3C21 (stereo unspecified)
inhibition [1]: 56.7% | inhibition [2]: 71.6% | inhibition [6]: 11% | pKi [3]: < 5.00 | pKi [4]: < 5.00 | pKi [5]: 5.79

Results, then the compound that gave them:

inhibition [1]: 34.9% | inhibition [2]: 92% | pKi [3]: < 5.00 | pKi [4]: < 5.00 | pKi [5]: 6.31
Structure (SMILES): CCCCNC(=O)N1OCC2CSc3ccc(F)cc3C21 (stereo unspecified)

inhibition [1]: 55.4% | inhibition [2]: 89.3% | inhibition [6]: 2.2% | pKi [3]: < 5.00 | pKi [4]: < 5.00 | pKi [5]: 6.24
Structure (SMILES): CC(C)NC(=O)N1OCC2CSc3ccc(F)cc3C21 (stereo unspecified)

inhibition [7]: 46.6% | inhibition [1]: 30% | inhibition [2]: 102% | inhibition [8]: 1.3% | pKi [9]: < 5.00 | inhibition [10]: -0.5% | inhibition [11]: 66.3% | Efficacy [12]: 0.5% | inhibition [13]: 1.1% | inhibition [14]: 8.9% | inhibition [15]: 16.5% | inhibition [16]: 2.4% | inhibition [17]: 3.2% | inhibition [18]: -3.2% | inhibition [19]: 8.1% | inhibition [20]: 31.8% | inhibition [21]: 27.1% | pEC50 [22]: < 5.00 | pEC50 [23]: 8.40 | inhibition [24]: 23.4% | pEC50 [25]: 9.14 | inhibition [26]: -10% | inhibition [27]: 4.5% | pEC50 [28]: < 5.00 | inhibition [29]: 37.8% | inhibition [30]: -8.7% | inhibition [31]: 3.7% | inhibition [32]: 12% | inhibition [33]: 7.1% | inhibition [34]: 30.8% | inhibition [35]: 44.9% | inhibition [36]: -7.8% | inhibition [6]: 6.2% | inhibition [37]: -4.3% | inhibition [38]: 34.1% | inhibition [39]: 34.6% | pKi [40]: < 5.00 | pKi [3]: < 5.00 | inhibition [41]: 20.6% | pKi [4]: < 5.00 | inhibition [42]: 23.7% | pKi [43]: < 5.00 | pKi [5]: 7.38 | inhibition [44]: 36.9% | inhibition [45]: 14% | pIC50 [46]: 7.37 | inhibition [47]: 20.4%
Structure (SMILES): O=C(NC1CCCCC1)N1OCC2CSc3ccc(F)cc3C21 (stereo unspecified)

inhibition [1]: 61.2% | inhibition [2]: 95.3% | inhibition [6]: 33.6% | pKi [3]: 5.29 | pKi [4]: < 5.00 | pKi [5]: 6.65
Structure (SMILES): O=C(Nc1ccccc1)N1OCC2CSc3ccc(F)cc3C21 (stereo unspecified)

inhibition [1]: 37.4% | inhibition [2]: 93% | pKi [3]: < 5.00 | pKi [4]: < 5.00 | pKi [5]: 6.42
Structure (SMILES): CCCNC(=O)N1OCC2CSc3ccc(F)cc3C21 (stereo unspecified)
